Experiment [1] has as its system Caki-1 cells (human clear cell renal cell carcinoma cells). As to the kind of experiment: MTT cell viability / IC50 assay, Caki-1. Type of experiment: cell-based. The method, then: Cell culture: In the following examples, unless otherwise specified, all cell lines are purchased from American Type Culture Collection and cultured in American Type Culture Collection (ATCC)-recommended media, with fetal bovine serum (FBS) to a final concentration of 10% and 1× penicillin/streptomycin at 37° C. with 5% CO2 in a cell culture incubator, unless otherwise specified. Unless otherwise specified, culture is 2D. Where culture is 3D, low attachment plates are used, with the same media. C4-2B (ATCC® CRL-3315™, human prostate cancer cells of epithelial morphology) parental cell line and drug-resistant cells derived therefrom) are cultured in RPMI-1640 with 10% FBS. MDVR cells (an Enzalutamide-resistant variety of C4-2B prostate cancer cells formed as described below) are cultured as indicated for the parental C4-2B cells. Caki-1 cells (human clear cell renal cell carcinoma cells) are cultured in ATCC-formulated McCoy's 5a Medium Modified (ATCC Catalog No. 30-2007) with 10% FBS. PC3 cells (ATCC® CRL-1435™, a human prostate cancer cell line of epithelial morphology initiated from a bone metastasis of a grade IV prostatic adenocarcinoma) are cultured in F-12K with 10% FBS. 22RV1 Prostate Cancer (PC) cells (ATCC® CRL-2505™, a human prostate carcinoma cell line of epithelial morphology) are cultured in RPMI-1640 with 10% FBS. DU145 cells (ATCC® HTB-81™, a human cell line derived from a prostate-originating brain metastase, not detectably hormone sensitive, not expressing prostate antigen; forms adenocarcinoma grade II in nude mice) are cultured in ATCC-formulated Eagle's Minimum Essential Medium (EMEM, Catalog No. 30-2003). H446 cells (ATCC® HTB-171™, a human small cell carcinoma SC lung cancer (SCLC) cell line derived from a metastatic site) are cultured in RPMI-1640 with 10% FBS. H358 cells (ATCC® CRL-5807™, a human non-small cell lung cancer (NSCLC) cell line that expresses protein and RNA of SP-A, the major lung surfactant associated protein, and produces tumors in athymic nude mice) are cultured in RPMI-1640 Medium with 10% FBS. BxPC3 cells (ATCC® CRL-1687™, an adenocarcinoma-derived pancreatic cancer cell line that expresses pancreas cancer specific antigen and carcinoembryonic antigen and forms tumors in nude mice) are cultured in RPMI-1640 with 10% FBS.
Example 1: A cell assay is performed exposing cells cultured as described above to various drugs indicated below for 24 hours unless otherwise indicated. Each of the cell lines is treated either with a THAD (e.g. DZ-DHA-ether, MI-148-bis-DHA), or for comparison, with the DHA mono-ester “DZ-DHA”; alternatively/additionally, DZ1 and/or unconjugated DHA may serve as comparants. For each cell line, the IC50 is determined for each drug in concentrations from 0 to 100 μM. […] In the controls (not shown in the figures), the cells are exposed to DMSO (vehicle) for a final concentration that equals the highest concentration of the drug tested, to a maximum concentration less than 0.1% v/v. 4 hours before culture end/SDS addition, 10 μL MTT (3-(4,5-Dimethyl-2-thiazolyl)-2,5-diphenyl-2H-tetrazolium bromide, Sigma-Aldrich) is added to wells containing the cells. At the end of culture, 100 μl 10% SDS is added and then the plate containing the cells is placed in a 37° C. cell culture incubator for 8 hours. The absorbance density of the supernatant is read on a 96-well microplate reader at wavelength 595 nm. The results of Caki-1 and MDRV are indicated in the table below along with preliminary results for further cancer cell lines (including, e.g., C4-2B, Abi-R, PC3, 22Rv1, DU145, H358, H446, BxPC3), and the corresponding curves are shown in FIG. 2A (Caki-1) and FIG. 2B (MDVR).

In experiment [2] the test system is pATM, γH2AX, cytochrome c. The experiment can be described thus: Western blot analysis of DNA damage and mitochondrial markers. Format: cell-based. The method, then: The western blot analysis is performed as follows: Protein lysates (25 ug/sample) are separated by electrophoresis into the SDS-PAGE, which is then transferred to a nitrocellulose membrane for immunoblotting analysis. The protein membranes are blocked with 5% non-fat milk in PBS at room temperature (RT) for 1 h, followed by incubation with primary antibodies against proteins of interests diluted in 2% BSA in Phosphate Buffered Saline with Tween-20 (PBST) at 1:500 or 1:1000 at 4° C. overnight. The membranes are washed with PBST three times at 5 min for each wash on an orbital shaker, and then incubated with secondary antibodies against the species of the primary antibodies (i.e. anti-mouse or anti-rabbit) diluted in 5% non-fat milk in PBST for 1 h at RT with shaking. After the secondary antibody, the membranes are washed three times for 5 min each, and subjected to chemiluminescence imaging with ECL substrates (e.g. Pierce ECL Plus™, Thermo Fisher Scientific), to detect the protein bands of interest. Preliminary experiments indicate that the THAD as described herein may have an increased effect compared to DZ3a.
Background: In western blotting, separated proteins are transferred to a membrane and probed.

A further experiment relates to C4-2B MDVR cells. The experiment can be described thus: Annexin V / PI flow cytometry, cell death and apoptosis. Format: cell-based, human. As to conditions: for induced cell death after pretreatment with OATP inhibitor: 2 h pretreatment with OATP inhibitor telmisartan (TMS); for induced cell death after pretreatment with Midivi or Nec-1: 2 h pretreatment with mitochondrial fission inhibitor (Midivi) or necroptosis inhibitor (Nec-1); for cell death / apoptosis (Annexin V / PI): C4-2B MDVR, e.g. 5 uM, 6 h. On the procedure:
Example 5E: Cancer cells (here C4-2B MDVR) are pretreated with OATP inhibitor telmisartan (TMS), mevalonate (MVA), Midivi (Drp-1 inhibitor), and necrostatin-1 (Nec-1) for 2 h before treatment with vehicle, DHA, DZ-003 and/or a THAD (e.g. 5 uM each) for 6 h. Cells are subjected to annexin v staining (10 ul/10^6 cells) in the dark at RT for 15-20 min followed by PI staining at 1 mg/ml to determine the apoptosis of the cells based on the PI (red) and Annexin V (green) fluorescence by flow cytometry analysis using SONY SA3800 Spectral Analyzer. […] The vehicle and DHA treated cells remain viable (lower-left quadrant; blue population indicates live cells).

Where two headings read alike, the source gives them in different places.

In general, IC50 refers to the midpoint of a concentration-inhibition curve. With `C[C@@H]1CC[C@H]2[C@@H](C)C(OC(=O)CCCCCN3/C(=C/C=C4\CCCC(/C=C/C5=[N+](CCCCS(=O)(=O)[O-])c6ccccc6C5(C)C)=C4Cl)C(C)(C)c4ccccc43)O[C@@H]3OC4(C)CC[C@@H]1[C@]32OO4` (stereo in doubt) [DZ3a], the IC50 in experiment [1] (Caki-1, 24 hours, relative IC50, read-out: IC50) came to 12.3 µM. The IC50 in experiment [1] (Caki-1, unit inferred, read-out: IC50 (FIG. 2A description)) was more than 12 µM. For the same molecule, in experiment [2], the “DNA damage (levels of pATM and γH2AX)” value is “induces DNA damage”; the “depletion of mitochondria (levels of cytochrome c)” value is on record as “depletes mitochondria”. Moreover, in the experiment on C4-2B MDVR cells, the “induced cell death after pretreatment with OATP inhibitor” value was “partially inhibited by an OATP inhibitor (TMA)”; the “induced cell death after pretreatment with Midivi or Nec-1” value is “blocked by mitochondrial fission (Midivi) and necroptosis inhibitors (Nec-1)”; the “cell death / apoptosis (Annexin V / PI)” value is given as “induces cell death”. Further, in the experiment on C4-2B MDVR cells (listed as DZ-003), the “induced cell death after pretreatment with OATP inhibitor” value was “can be partially inhibited by an OATP inhibitor (TMS)”; the “induced cell death after pretreatment with Midivi or Nec-1” value is “can be blocked by mitochondrial fission (Midivi) and necroptosis inhibitor (Nec-1)”; the “cell death / apoptosis (Annexin V / PI)” value was “induced cell death”. The “induced cell death after pretreatment with mevalonate (MVA)” value in the experiment with C4-2B MDVR cells (2 h pretreatment with mevalonate (MVA)) was “not so much by mevalonic acid (MVA)”.

The values above are taken from US20230226198A1, “Artemisinin Derivatives” (DA ZEN THERANOSTICS, INC., priority 2019, published 2023).
